The conditions of data set [1]: after 24 hrs; cited from earlier work.
Data set [2] in a line: Liver, lung, kidney and plasma distribution of radiolabeled (tritiated) galactomannan after single intravenous injection. It counts as in vivo, male NCr-nu athymic nude mice. The note with it: for μCi of 3H-galactomannan per 1 g of kidney / μCi of 3H-galactomannan per 1 g of liver / μCi of 3H-galactomannan per 1 g of lungs / μCi of 3H-galactomannan per kidney, total / μCi of 3H-galactomannan per lungs, total / μCi of 3H-galactomannan per mL of plasma / μCi of 3H-galactomannan per liver, total: 6 or 60 mg/kg i.v., pooled; for μCi of 3H-galactomannan per liver, total: average of four animals. The text has this:
Twelve male NCr-nu athymic nude mice (Charles Rivers Laboratories, Raleigh, N.C.) were acclimated in the laboratory one week prior to experimentation. The animals were housed in microisolator cages, four per cage, and using a 12-hour light/dark cycle. All animals received sterilized tap water and sterile rodent food ad libitum. The animals were observed daily and clinical signs were noted. The mice were healthy and had not been previously used in other experimental procedures.
Tritiation of the galactomannan was performed as follows. 12.8 mg of the galactomannan was dissolved in 2.0 mL of water and exposed to 25 Curies of tritium gas in the presence of Pd/BaSO4 catalyst (120 mg, totally insoluble in water). After one hour the gas supply was removed, the catalyst was filtered away, and the aqueous solution of the galactomannan was evaporated to dryness repeatedly (four-fold, adding water), until no labile tritium was found. Total yield of the labeled galactomannan was 3.8 mCi, specific radioactivity was […].
All twelve mice were given a single intravenous injection of cold or tritiated galactomannan (either 6 or 60 mg/kg) on the same day. Non-labeled galactomannan was formulated in saline, and tritiated galactomannan was added to the solution so that each animal received 10 μCi of radioactivity. All dosing solutions (100 μL each) were counted in duplicate. Six mice were injected with 6 mg/kg solution, and six mice—with 60 mg/kg solution.
Two mice from each group were bled at 1, 6, and 24 hrs after injection, and plasma was prepared. Animals were then sacrificed; livers, kidneys and lungs were collected, weighed and flash-frozen for further analysis.
After weighing, livers were dissolved in 10 mL of Soluene 350 and incubated first for 4 hrs at 50° C., and at room temperature, until tissues were solubilized. One mL of the resulting solution was counted in a scintillation counter as a single sample. Based on tissue weight and the sample volume, the number of μCi of tritiated galactomannan per gram of tissue was calculated.
Kidneys were treated in the same manner, but dissolved in two mL of Soluene. After the tissue was solubilized at room temperature, 15 mL of Safety Solve scintillation fluid was added and samples were incubated overnight. Five mL of the resulting solution were diluted in 15 mL of Safety Solve and counted in a scintillation counter as a single sample. Lungs were treated in the same manner but dissolved in one mL of Soluene. Plasma samples (50 μL each) were placed direct into Safety Solve and counted as a single sample.
The statistical evaluation was based on experiments to trace and quantify the labeled galactomannan in organs/tissues (liver, kidneys, lung, and plasma). Six mice were treated with galactomannan at 60 mg/kg with each of 2 mice sacrificed at 1, 6, and 24 hours; six mice were treated with galactomannan at 6 mg/kg with each of 2 mice sacrificed at 1, 6, and 24 hours, as described above. The percentages of ^3H-galactomannan recovered per organ (μCi/gram) was used for analyses; plasma outcome (μCi/ml) was counted from the entire sample.
The assessment of radiolabel uptake was challenging with only two mice per treatment-sacrifice time combination and occasional outliers. To address the number of mice per group, pooling tests were performed for the two galactomannan treatment groups; this would potentially increase sample size per group to four. To address possible outliers, all outcomes for each individual mouse was visually compared to the other mice in the series-treatment-time combination; the four possible mice outcomes were considered in this evaluation since any sigma-based rule would have excluded none or both observations if applied separately to the two different series.
SAS (Version 6.12, Cary, N.C.) was used for all analyses. PROC ANOVA was used for pooling tests, while […] was used to estimate means and standard deviations.
Overall, the data in Table 1 are average for four animals.

With `O=c1[nH]cc(F)c(=O)[nH]1` [5-fluorouracil], in data set [1], the “clearance from the kidneys, eliminated to” value is recorded as 3.8%; the “clearance from the liver, eliminated to” value was 1.6%; the “clearance from the lungs, eliminated to” value is given as 3.6%.

With galactomannan, in data set [2] (60 mg/kg versus 6 mg/kg (10-times higher dose)), the “increase of the amount of bound galactomannan” value is 10 fold. In addition, in data set [2] (1 hr after injection), the “μCi of 3H-galactomannan per 1 g of kidney” value (shortened to “μCi … per 1 g of kidney”) is 0.302 μCi/gram; the “μCi of 3H-galactomannan per 1 g of liver” value is listed as 0.219 μCi/gram; the “μCi of 3H-galactomannan per 1 g of lungs” value was determined as 0.117 μCi/gram; the “μCi of 3H-galactomannan per kidney, total” value (“μCi … per kidney, total” for short) turned out to be 0.120 μCi. In addition, in data set [2] (1 hr after injection), the “μCi of 3H-galactomannan per lungs, total” value is recorded as 0.019 μCi; the “μCi of 3H-galactomannan per mL of plasma” value was found to be 0.201 μCi/ml; the “μCi of 3H-galactomannan per liver, total” value came out at 0.262 μCi. Further, in data set [2] (6 hr after injection), the “μCi … per 1 g of kidney” value worked out at 0.131 μCi/gram; the “μCi of 3H-galactomannan per 1 g of liver” value amounted to 0.146 μCi/gram; the “μCi of 3H-galactomannan per 1 g of lungs” value was determined as 0.063 μCi/gram; the “μCi … per kidney, total” value was determined as 0.060 μCi. In data set [2] (6 hr after injection), the “μCi of 3H-galactomannan per lungs, total” value is listed as 0.012 μCi; the “μCi of 3H-galactomannan per mL of plasma” value is on record as 0.095 μCi/ml; the “μCi of 3H-galactomannan per liver, total” value was 0.196 μCi. Moreover, in data set [2] (24 hrs after injection), the “μCi … per 1 g of kidney” value was found to be 0.087 μCi/gram; the “μCi of 3H-galactomannan per 1 g of liver” value is reported as 0.129 μCi/gram; the “μCi of 3H-galactomannan per 1 g of lungs” value is 0.060 μCi/gram; the “μCi … per kidney, total” value came out at 0.040 μCi. In addition, in data set [2] (24 hrs after injection), the “μCi of 3H-galactomannan per lungs, total” value is reported as 0.011 μCi; the “μCi of 3H-galactomannan per mL of plasma” value came to 0.106 μCi/ml; the “μCi of 3H-galactomannan per liver, total” value was 0.169 μCi. The “saturation of the binding to liver, kidney, lung, and plasma” value in data set [2] (between the 6 mg/kg and 60 mg/kg doses) is “did not reach saturation of the binding”. Besides, the “share of the radioactivity detected at one hour after injection still present” value in data set [2] (liver, at 24 hours, average) was “more than 50%”. For the same molecule, the “share of the one-hour radioactivity detected” value in data set [2] (plasma, kidneys, and lungs, at 6 hours, average) was “approximately 50%”.

The values above are taken from patent publication US20210008097A1, “Compositions Comprising Galactose-Pronged Polysaccharides” (Galectin Therapeutics, Inc., priority 2006, published 2021).
